From ChEMBL document CHEMBL1132537, “A series of 6- and 7-piperazinyl- and -piperidinylmethylbenzoxazinones with dopamine D4 antagonist activity: discovery of a potential atypical antipsychotic agent” (J Med Chem, 1999)

How the values were obtained:
[1] = tested on: Rattus norvegicus; assay: Effect on Dopamine synthesis in rat Striatum(ST), measured as accumulation of DOPA(L-3,4-dihydroxyphenylalanine) at a peroral dose of 30 mg/kg; type: functional; conditions: route oral
[2] = biological target: D(3) dopamine receptor (Homo sapiens, UniProt P35462); assay: biochemical
Description: Binding affinity at Dopamine receptor D3 in CHO cells by radioligand displacement.

[3] = tested on: Rattus norvegicus; assay: Effect on Dopamine synthesis in rat Hippocampus(HI), measured as accumulation of DOPA(L-3,4-dihydroxyphenylalanine) at a peroral dose of 30 mg/kg; type: functional; conditions: route oral
[4] = biological target: T1, D(4) dopamine receptor (Homo sapiens, UniProt P21917); assay: biochemical
T1 sequence (P21917 whole entry): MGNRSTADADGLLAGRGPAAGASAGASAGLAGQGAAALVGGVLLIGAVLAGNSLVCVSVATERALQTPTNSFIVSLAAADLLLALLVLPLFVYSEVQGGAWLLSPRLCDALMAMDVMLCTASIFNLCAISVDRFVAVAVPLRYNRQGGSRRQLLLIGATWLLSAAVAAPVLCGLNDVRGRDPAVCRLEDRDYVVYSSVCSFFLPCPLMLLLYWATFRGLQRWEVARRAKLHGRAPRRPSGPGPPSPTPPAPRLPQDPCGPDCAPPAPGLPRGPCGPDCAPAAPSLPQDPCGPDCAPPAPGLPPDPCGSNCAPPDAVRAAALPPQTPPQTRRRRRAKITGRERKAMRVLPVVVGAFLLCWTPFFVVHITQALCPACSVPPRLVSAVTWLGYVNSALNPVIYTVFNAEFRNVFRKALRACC
Description: Binding affinity at Dopamine receptor D4 in CHO cells by radioligand displacement.

[5] = tested on: Rattus norvegicus; assay: Effect on Dopamine synthesis in rat Striatum(ST), measured as accumulation of DOPA(L-3,4-dihydroxyphenylalanine) at a peroral dose of 20 mg/kg; type: functional; conditions: route oral
[6] = tested on: Rattus norvegicus; assay: Effect on Dopamine synthesis in rat Hippocampus(HI), measured as accumulation of DOPA(L-3,4-dihydroxyphenylalanine) at a peroral dose of 20 mg/kg; type: functional; conditions: route oral
[7] = tested on: Rattus norvegicus; assay: Effect on Dopamine synthesis in rat Hippocampus(HI), measured as accumulation of DOPA(L-3,4-dihydroxyphenylalanine) at a peroral dose of 10 mg/kg; type: functional; conditions: route oral
[8] = tested on: Rattus norvegicus; assay: Effect on Dopamine synthesis in rat Striatum(ST), measured as accumulation of DOPA(L-3,4-dihydroxyphenylalanine) at a peroral dose of 10 mg/kg; type: functional; conditions: route oral
[9] = biological target: T2, Alpha-1B adrenergic receptor (Rattus norvegicus, UniProt P15823); assay: Inhibition of [3H]- prazosin binding against Alpha-1B adrenergic receptor from rat liver
T2 sequence (P15823 whole entry): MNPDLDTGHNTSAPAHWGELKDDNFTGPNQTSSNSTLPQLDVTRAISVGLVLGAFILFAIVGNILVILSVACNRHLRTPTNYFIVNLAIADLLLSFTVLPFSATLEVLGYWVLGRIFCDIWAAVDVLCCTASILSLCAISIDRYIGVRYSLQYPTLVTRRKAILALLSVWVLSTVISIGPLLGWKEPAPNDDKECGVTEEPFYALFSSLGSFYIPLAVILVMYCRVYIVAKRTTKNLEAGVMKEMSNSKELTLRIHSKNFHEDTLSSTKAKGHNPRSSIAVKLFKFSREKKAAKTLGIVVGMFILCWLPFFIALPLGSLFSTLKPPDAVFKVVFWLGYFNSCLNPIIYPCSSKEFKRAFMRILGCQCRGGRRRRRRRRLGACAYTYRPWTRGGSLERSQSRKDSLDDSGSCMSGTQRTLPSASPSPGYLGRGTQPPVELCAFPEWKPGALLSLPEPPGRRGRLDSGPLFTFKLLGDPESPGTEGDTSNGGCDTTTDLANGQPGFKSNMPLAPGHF

[10] = biological target: T3, Alpha-2A adrenergic receptor (Homo sapiens, UniProt P08913); assay: Inhibition of [3H]- MK-912 binding against human recombinant Alpha-2A adrenergic receptor
T3 sequence (P08913 whole entry): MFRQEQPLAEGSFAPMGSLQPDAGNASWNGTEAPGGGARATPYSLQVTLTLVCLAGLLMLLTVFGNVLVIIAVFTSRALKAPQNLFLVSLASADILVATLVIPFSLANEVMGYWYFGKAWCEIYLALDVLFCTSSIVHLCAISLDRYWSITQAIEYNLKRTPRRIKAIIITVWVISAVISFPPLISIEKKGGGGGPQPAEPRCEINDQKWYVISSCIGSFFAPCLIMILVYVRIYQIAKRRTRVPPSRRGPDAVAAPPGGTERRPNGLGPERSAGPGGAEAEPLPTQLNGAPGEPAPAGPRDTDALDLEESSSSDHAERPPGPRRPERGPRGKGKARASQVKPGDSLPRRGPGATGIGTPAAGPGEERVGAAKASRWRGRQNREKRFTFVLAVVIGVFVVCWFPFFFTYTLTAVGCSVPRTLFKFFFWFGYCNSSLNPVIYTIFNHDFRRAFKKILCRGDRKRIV

[11] = biological target: D(2) dopamine receptor (Homo sapiens, UniProt P14416); assay: Binding affinity at Dopamine receptor D2 in CHO cells by radioligand displacement.; type: cell-based
[12] = biological target: T4, Muscarinic acetylcholine receptor M5 (Homo sapiens, UniProt P08912); assay: Inhibition of [3H]- NMS binding against human recombinant Muscarinic acetylcholine receptor M5
T4 sequence (P08912 whole entry): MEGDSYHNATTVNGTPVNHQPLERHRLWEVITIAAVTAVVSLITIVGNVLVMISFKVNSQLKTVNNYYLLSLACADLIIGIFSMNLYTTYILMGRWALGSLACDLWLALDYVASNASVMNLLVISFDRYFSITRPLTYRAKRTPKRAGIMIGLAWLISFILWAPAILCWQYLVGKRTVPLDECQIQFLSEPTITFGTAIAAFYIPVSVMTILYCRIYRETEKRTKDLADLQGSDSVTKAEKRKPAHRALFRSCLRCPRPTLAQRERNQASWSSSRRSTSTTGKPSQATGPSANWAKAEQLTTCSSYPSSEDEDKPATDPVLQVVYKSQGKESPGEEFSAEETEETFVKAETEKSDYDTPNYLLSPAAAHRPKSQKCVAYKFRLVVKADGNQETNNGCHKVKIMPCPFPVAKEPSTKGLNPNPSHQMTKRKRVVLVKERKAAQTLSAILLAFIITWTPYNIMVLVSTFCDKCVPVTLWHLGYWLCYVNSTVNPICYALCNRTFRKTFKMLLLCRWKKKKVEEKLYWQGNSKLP

[13] = biological target: T5, 5-hydroxytryptamine receptor 1A (Homo sapiens, UniProt P08908); assay: Inhibition of [3H]- […] binding against human recombinant 5-hydroxytryptamine 1A receptor
T5 sequence (P08908 whole entry): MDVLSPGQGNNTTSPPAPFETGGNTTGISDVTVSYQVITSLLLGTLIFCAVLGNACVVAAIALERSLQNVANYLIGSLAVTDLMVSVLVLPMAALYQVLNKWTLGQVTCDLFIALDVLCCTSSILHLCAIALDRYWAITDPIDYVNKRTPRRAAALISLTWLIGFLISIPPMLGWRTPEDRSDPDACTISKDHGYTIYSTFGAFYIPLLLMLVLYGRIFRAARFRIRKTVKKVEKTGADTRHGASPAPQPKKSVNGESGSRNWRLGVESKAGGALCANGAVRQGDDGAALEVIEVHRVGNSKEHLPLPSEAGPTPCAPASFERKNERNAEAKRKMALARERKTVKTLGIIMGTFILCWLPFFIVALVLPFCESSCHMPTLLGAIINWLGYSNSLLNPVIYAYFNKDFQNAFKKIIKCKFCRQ

[14] = biological target: Serotonin 2 (5-HT2) receptor (Rattus norvegicus, UniProt P30994+P08909+P14842); assay: Inhibition of [3H]- Ketanserin binding against rat brain 5-hydroxytryptamine 2 receptor
[15] = biological target: T6, Alpha-1A adrenergic receptor (Rattus norvegicus, UniProt P43140); assay: Inhibition of [3H]- prazosin binding against Alpha-1A adrenergic receptor from rat submaxillary gland
T6 sequence (P43140 whole entry): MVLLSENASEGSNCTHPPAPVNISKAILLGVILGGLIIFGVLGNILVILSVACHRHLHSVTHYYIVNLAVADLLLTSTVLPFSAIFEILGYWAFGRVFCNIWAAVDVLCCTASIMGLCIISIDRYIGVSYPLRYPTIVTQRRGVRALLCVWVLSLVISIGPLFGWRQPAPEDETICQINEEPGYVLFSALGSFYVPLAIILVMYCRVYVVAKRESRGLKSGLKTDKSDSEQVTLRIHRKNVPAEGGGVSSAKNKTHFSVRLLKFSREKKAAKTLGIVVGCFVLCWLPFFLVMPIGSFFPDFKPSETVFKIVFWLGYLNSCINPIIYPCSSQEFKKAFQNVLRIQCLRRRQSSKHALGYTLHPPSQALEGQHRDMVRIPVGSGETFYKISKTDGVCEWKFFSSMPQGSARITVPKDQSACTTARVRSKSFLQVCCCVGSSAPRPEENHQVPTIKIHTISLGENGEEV

[16] = biological target: T7, Alpha-2B adrenergic receptor (Rattus norvegicus, UniProt P19328); assay: Inhibition of [3H]- Yohimbine binding against rat kidney cortex Alpha-2B adrenergic receptor
T7 sequence (P19328 whole entry): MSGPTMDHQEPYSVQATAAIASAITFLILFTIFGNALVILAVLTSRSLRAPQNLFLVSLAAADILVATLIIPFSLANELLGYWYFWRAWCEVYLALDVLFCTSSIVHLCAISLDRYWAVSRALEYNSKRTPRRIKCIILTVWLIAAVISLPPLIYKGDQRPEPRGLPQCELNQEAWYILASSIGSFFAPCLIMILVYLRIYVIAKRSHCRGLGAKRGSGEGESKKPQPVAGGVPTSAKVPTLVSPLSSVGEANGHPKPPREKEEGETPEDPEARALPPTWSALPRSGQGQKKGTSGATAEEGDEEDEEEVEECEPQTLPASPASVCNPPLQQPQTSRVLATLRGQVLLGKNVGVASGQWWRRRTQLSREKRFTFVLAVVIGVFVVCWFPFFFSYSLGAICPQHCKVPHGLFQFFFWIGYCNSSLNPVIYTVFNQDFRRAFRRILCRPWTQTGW

[17] = biological target: Sigma intracellular receptor 2 (Rattus norvegicus, UniProt Q5U3Y7); assay: Inhibition of [3H]- Ifenprodil binding against rat brain Sigma opioid receptor type 2
Sigma intracellular receptor 2, sequence (Q5U3Y7 whole entry, looked up): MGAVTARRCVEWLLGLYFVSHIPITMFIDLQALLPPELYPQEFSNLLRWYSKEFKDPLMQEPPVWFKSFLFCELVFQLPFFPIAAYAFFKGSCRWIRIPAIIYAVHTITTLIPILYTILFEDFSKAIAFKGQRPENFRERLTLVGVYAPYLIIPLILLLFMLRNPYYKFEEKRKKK

D(3) dopamine receptor, sequence (P35462 whole entry): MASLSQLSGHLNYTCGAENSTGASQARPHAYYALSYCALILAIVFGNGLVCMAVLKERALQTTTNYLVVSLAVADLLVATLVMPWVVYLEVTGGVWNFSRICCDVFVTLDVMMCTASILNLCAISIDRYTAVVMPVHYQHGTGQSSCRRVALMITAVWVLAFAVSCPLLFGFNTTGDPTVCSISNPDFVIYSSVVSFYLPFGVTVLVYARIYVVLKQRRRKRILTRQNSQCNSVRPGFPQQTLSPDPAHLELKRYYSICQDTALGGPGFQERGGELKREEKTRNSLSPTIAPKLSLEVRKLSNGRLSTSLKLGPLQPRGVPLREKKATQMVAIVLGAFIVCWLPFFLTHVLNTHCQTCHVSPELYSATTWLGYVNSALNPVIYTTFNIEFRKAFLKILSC
D(2) dopamine receptor, sequence (P14416 whole entry): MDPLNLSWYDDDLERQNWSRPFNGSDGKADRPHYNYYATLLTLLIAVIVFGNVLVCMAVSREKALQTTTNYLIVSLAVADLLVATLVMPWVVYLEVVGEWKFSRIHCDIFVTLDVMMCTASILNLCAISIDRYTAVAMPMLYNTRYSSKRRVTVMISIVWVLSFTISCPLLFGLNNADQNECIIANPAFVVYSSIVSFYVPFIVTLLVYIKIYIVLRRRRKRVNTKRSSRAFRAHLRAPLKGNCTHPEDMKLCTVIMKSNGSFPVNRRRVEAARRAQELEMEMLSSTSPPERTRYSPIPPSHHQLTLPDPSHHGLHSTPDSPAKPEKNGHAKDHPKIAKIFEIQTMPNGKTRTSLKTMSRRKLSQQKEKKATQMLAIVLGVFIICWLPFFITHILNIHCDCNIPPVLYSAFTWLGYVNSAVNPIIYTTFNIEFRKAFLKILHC

SMILES	Ki [2] [nM]	Ki [4] [nM]	Change [7] [%]	Change [8] [%]	other results
COc1ccc(N2CCN(Cc3ccc4c(c3)NC(=O)CO4)CC2)cc1	> 3030	–	–	–	Change [1]: 110%; Change [3]: 91%
Cc1ccc(N2CCN(Cc3ccc4c(c3)OCC(=O)N4)CC2)cc1C	78.5	–	–	–	–
O=C1COc2ccc(CN3CCN(c4ccc(Cl)cc4)CC3)cc2N1	> 3030	62.4	–	–	–
Cc1ccc(C2CCN(Cc3ccc4c(c3)OCC(=O)N4)CC2)cc1	232	2.6	–	–	–
COc1ccc(C2CCN(Cc3ccc4c(c3)OCC(=O)N4)CC2)cc1	428	6.7	–	–	Change [5]: 126%; Change [6]: 132%
Cc1ccc(C2CCN(Cc3ccc4c(c3)OCC(=O)N4)CC2)cc1C	859	2.6	103	99	–
O=C1COc2cc(CN3CCN(c4ccc(Cl)cc4)CC3)ccc2N1	679	4.3	146	110	IC50 [9]: 1420 nM; Ki [9]: 787 nM; IC50 [10]: 1100 nM; Ki [10]: 411 nM; Ki [11]: 413 nM; IC50 [12]: 1340 nM; Ki [12]: 964 nM; IC50 [13]: 1400 nM; Ki [13]: 792 nM; IC50 [14]: 2700 nM; Ki [14]: 1678 nM; IC50 [15]: 500 nM; Ki [15]: 203 nM; IC50 [16]: 630 nM; Ki [16]: 368 nM; IC50 [17]: 375 nM; Ki [17]: 231 nM
O=C1COc2ccc(CN3CCN(c4ccccc4)CC3)cc2N1	839	18.3	–	–	–
Cc1ccc(N2CCN(Cc3ccc4c(c3)OCC(=O)N4)CC2)cc1	208	–	133	140	–
COc1ccc(N2CCN(Cc3ccc4c(c3)OCC(=O)N4)CC2)cc1	1790	5	122	104	Ki [11]: > 5880 nM
Cc1ccc(N2CCN(Cc3ccc4c(c3)NC(=O)CO4)CC2)cc1C	864	–	122	126	–
COc1ccc(C2CCN(Cc3ccc4c(c3)NC(=O)CO4)CC2)cc1	> 3030	–	–	–	Change [1]: 96%; Change [3]: 93%
Cc1ccc(C2CCN(Cc3ccc4c(c3)NC(=O)CO4)CC2)cc1	> 3030	2.8	–	–	–
Cc1ccc(C2CCN(Cc3ccc4c(c3)NC(=O)CO4)CC2)cc1C	> 3030	1.8	–	–	Change in DA synthesis [7]: 128%; Change in DA synthesis [8]: 104%
O=C1COc2cc(CN3CCN(c4ccccc4)CC3)ccc2N1	10.4	6.1	–	–	–
Cc1ccc(N2CCN(Cc3ccc4c(c3)NC(=O)CO4)CC2)cc1	2490	4.3	–	–	Change [5]: 111%; Change [6]: 89%
